Assay results: US20250319056A1, “METHODS FOR TREATING CANCER” (THE TRUSTEES OF INDIANA UNIVERSITY, priority 2024, published 2025)
Read-outs that look alike come from different tables or passages of the source.

Tests used:
[1] = AlamarBlue cell viability assay, non-cancerous intestine FHs-74Int cells; details: human
[2] = AlamarBlue cell viability assay, non-cancerous colon FHC cells; details: human
[3] = test system: HCT-116 cells; test: AlamarBlue cell viability assay, HCT-116 colon cancer cells; format: cell-based, human; details: for Average Selectivity Index: CC50 non-cancer cells (FHC, FHs 74Int) compared to EC50 HCT-116; for EC50: AlamarBlue, 48 h with compound, read-out: Human Cell Viability EC50 Colon Cancer (HCT 116)
[4] = test system: HT-29 cells; test: AlamarBlue cell viability assay, HT-29 colon cancer cells; format: cell-based; details: Homo sapiens, 48 h with compound, ^BP = curve baseline plateaued between ~10-20%
[5] = test system: DLD-1 cells; test: AlamarBlue cell viability assay, DLD-1 colon cancer cells; format: cell-based; details: Homo sapiens, 48 h with compound, ^BP = curve baseline plateaued between ~10-20%, read-out: Human Cell Viability EC50 Colon Cancer (DLD1)
[6] = FHs-74Int non-cancerous intestine cells, Human Cell Viability CC50 Intestine (FHs 74Int), non-cancerous intestine cells, AlamarBlue, 48 h
[7] = FHC non-cancerous colon cells, Human Cell Viability CC50 Colon (FHC), non-cancerous colon cells, AlamarBlue, 48 h

Row | Compound | CC50 at 48 h [1, 6] [µM] | CC50 at 48 h [2, 7] [µM] | Average Selectivity Index [3] | EC50 ([3]; Homo sapiens, HCT-116, 48 h) [µM] | CC50 at 48 h [1] [µM] | CC50 at 48 h [2] [µM] | EC50 ([3]; trihydrate) [µM] | Average Selectivity Index ([3]; trihydrate) | EC50 [4] [µM] | EC50 [5] [µM]
1 | CC(=O)O[C@H]1C(=O)[C@@]2(C)[C@H]([C@H](OC(=O)c3ccccc3)[C@]3(O)C[C@H](OC(=O)[C@H](O)[C@@H](NC(=O)c4ccccc4)c4ccccc4)C(C)=C1C3(C)C)[C@]1(OC(C)=O)CO[C@@H]1C[C@@H]2O [Compound 70, Paclitaxel, reference compound] | > 100 | > 100 | 2222.2 | < 0.045 |  |  |  |  |  | 
2 | COc1cc(NC(C)CCCN)c2ncccc2c1 (centres unmarked) [Compound 71, Primaquine, reference compound] | 56.6 | 77.4 |  |  |  |  |  |  |  | 
3 | CC[n+]1c(-c2ccccc2)c2cc(N)ccc2c2ccc(N)cc21 [Compound 73, Ethidium bromide, reference compound] |  |  |  |  | > 100 | > 100 |  |  |  | 
4 | CN(C)c1ccc2nc3ccc(=[N+](C)C)cc-3sc2c1 [Compound 74, Methylene blue trihydrate, reference compound] | 23.4 | 31.3 |  | 2.3 to 11 |  |  | 2.3 | 11.9 |  | 
5 | CC(C)n1c(/C=C/C(O)CC(O)CC(=O)O)c(-c2ccc(F)cc2)c2ccccc21 (centres unmarked) [Compound 82, Fluvastatin sodium, reference compound] | > 100 | > 100 | 11.6 |  |  |  |  |  |  | 
6 | O=C(N/N=C/c1ccc([N+](=O)[O-])o1)c1cccs1 [Compound 120] | 50 | 84 | 7.4 | 9.1 |  |  |  |  | 3.6 | 14
7 | O=C(N/N=C/c1ccc([N+](=O)[O-])o1)c1ccc(Cl)s1 [Compound 121] | 49 | 51 | 6.2 | 8.2 |  |  |  |  | 5.7 | 8
8 | O=C(N/N=C/c1ccc([N+](=O)[O-])o1)c1ccccc1 [Compound 122] | 71 | > 100 | 6.5 | 13 |  |  |  |  | 4.9 | 18
9 | O=C(N/N=C/c1ccc([N+](=O)[O-])o1)c1ccncc1 [Compound 123] | 75 | 70 | 2.6 | 28 |  |  |  |  |  | 
10 | COc1ccc(C(=O)N/N=C/c2ccc([N+](=O)[O-])o2)cc1 [Compound 124] | 47 | > 100 | 16.1 | 4.6 |  |  |  |  | 2.7 | 7.6
11 | CN(C)c1ccc(C(=O)N/N=C/c2ccc([N+](=O)[O-])o2)cc1 [Compound 125] | > 100 | > 100 | 11.8 | 8.5 |  |  |  |  | 0.29 | > 100
12 | O=C(N/N=C/c1ccc([N+](=O)[O-])o1)c1cccc2ccccc12 [Compound 126] | 52 | 58 | 5.7 | 9.6 |  |  |  |  | 4.4 | 11
13 | O=C(N/N=C/c1ccc([N+](=O)[O-])o1)c1ccccc1Oc1ccccc1 [Compound 127] | 55 | 49 |  | 11 |  |  |  |  |  | 26
14 | CCN(CC)S(=O)(=O)c1cccc(C(=O)N/N=C/c2ccc([N+](=O)[O-])o2)c1 [Compound 129] | 8.7 | > 100 | 12.0 | 7.8 |  |  |  |  | 4.2 | 8.9
15 | O=C(N/N=C/c1ccc([N+](=O)[O-])o1)c1ccc(NS(=O)(=O)c2cccs2)cc1 [Compound 130] | 69 | > 100 | 9.3 | 9.1 |  |  |  |  | 8.1 | 57
16 | O=C(N/N=C/c1ccc([N+](=O)[O-])o1)c1ccc(NS(=O)(=O)c2ccc(Br)cc2)cc1 [Compound 131] | > 100 | > 100 | 18.8 | 5.3 |  |  |  |  | 3.6 | 29
17 | CCOc1ccc(S(=O)(=O)Nc2ccc(C(=O)N/N=C/c3ccc([N+](=O)[O-])o3)cc2)cc1 [Compound 132, 4-ethoxy-N-(4-(2-((5-nitrofuran-2-yl)methylene)hydrazine-1-carbonyl)phenyl)benzenesulfonamide] | > 100 | 89 | 52.0 | 1.8 |  |  |  |  | 2.3 | 18
18 | O=C1CN(/N=C/c2ccc(O)c3ncccc23)C(=O)N1 [Compound 133] | > 100 | > 100 | 2.6 | 39 |  |  |  |  |  | 
19 | CC1CS(=O)(=O)CCN1/N=C/c1ccc(O)c2ncccc12 (centres unmarked) [Compound 134] | 87 | > 100 | 13 | 7 |  |  |  |  | 8.1 | 6.3
20 | O=C(N/N=C/c1ccc(O)c2ncccc12)c1cccs1 [Compound 135] | 86 | 85 | 27 | 3.2 |  |  |  |  | 3.6 | 2.3
21 | O=C(N/N=C/c1ccc(O)c2ncccc12)c1ccc(Cl)s1 [Compound 136] | 42 | 25 | 8.8 | 3.8 |  |  |  |  | 3.2 | 3.9
22 | O=C(N/N=C/c1ccc(O)c2ncccc12)c1ccncc1 [Compound 138] | 69 | > 100 | 1.8 | 48 |  |  |  |  |  | 
23 | CN(C)c1ccc(C(=O)N/N=C/c2ccc(O)c3ncccc23)cc1 [Compound 140] | 42 | 35 | 8.8 | 4.4 |  |  |  |  | 2.4 | 
24 | COc1ccc(C(=O)N/N=C/c2ccco2)cc1 [Compound 158] | > 100 | > 100 | 1.0 | > 100 |  |  |  |  |  | 
25 | O=Cc1ccc(O)c2ncccc12 [Compound 159] | 15 | 4.4 | 1.6 | 6.2 |  |  |  |  |  | 
26 | O=Cc1ccc([N+](=O)[O-])o1 [Compound 160] | 53 | 53 | 1.9 | 29 |  |  |  |  |  | 
27 | COc1ccc(C(=O)NN)cc1 [Compound 161] | > 100 | > 100 | 1.0 | > 100 |  |  |  |  |  | 
28 | CC1CS(=O)(=O)CCN1/N=C/c1ccc([N+](=O)[O-])o1 (centres unmarked) [Nifurtimox (Nfx - 106), Nifurtimox, reference compound] | > 100 | > 100 | 1.0 | > 100 |  |  |  |  |  | 
29 | O=C1CN(/N=C/c2ccc([N+](=O)[O-])o2)C(=O)N1 [Nitrofurantoin (Nft), Nitrofurantoin, reference compound] | > 100 | > 100 | 1.1 | 95 |  |  |  |  |  | 
30 | O=[N+]([O-])c1ccc(O)c2ncccc12 [Nitroxoline, reference compound] | 41 | 28 | 1.6 | 22 |  |  |  |  |  | 
